From ChEMBL document CHEMBL1124516, “Synthesis of 2,3-diaziridinyl-1,4-naphthoquinone sulfonate derivatives as potential antineoplastic agents” (1989)

Assays:
Mus musculus [1] = assay: Average change in weight in mice bearing the B16 Melanoma, when compound (20 mg/kg) was administered beginning 24 hr after tumor implantation, daily once for 6 consecutive days.; assay type: functional
Mus musculus [2] = assay: Average change in weight in mice bearing the L1210 Leukemia, when compound (10 mg/kg) was administered beginning 24 hr after tumor implantation, daily once for 6 consecutive days.; assay type: functional
Mus musculus [3] = assay: Average change in weight in mice bearing the L1210 Leukemia, when compound (5 mg/kg) was administered beginning 24 hr after tumor implantation, daily once for 6 consecutive days.; assay type: functional
Mus musculus [4] = assay: Average change in weight in mice bearing the L1210 Leukemia, when compound(15 mg/kg) was administered beginning 24 h after tumor implantation, daily once for 6 consecutive days.; assay type: functional
Mus musculus [5] = assay: Average change in weight in mice bearing the B16 Melanoma, when compound (15 mg/kg) was administered beginning 24 h after tumor implantation, daily once for 6 consecutive days.; assay type: functional
Mus musculus [6] = assay: Average change in weight in mice bearing the B16 Melanoma, when compound(10 mg/kg) was administered intraperitoneally beginning 24 hr after tumor implantation, daily once for 6 consecutive days.; assay type: functional
Mus musculus [7] = assay: The ratio of the survival time of treated to control animals x 100 in mice bearing B16 Melanoma, when compound (15 mg/kg) was administered intraperitoneally; assay type: functional
Mus musculus [8] = assay: The ratio of the survival time of treated to control animals x 100 in mice bearing B16 Melanoma, when compound (20 mg/kg) was administered intraperitoneally; assay type: functional
Mus musculus [9] = assay: The ratio of the survival time of treated to control animals x 100 in mice bearing B16 Melanoma, when compound (5 mg/kg) was administered intraperitoneally; assay type: functional
Mus musculus [10] = assay: The ratio of the survival time of treated to control animals x 100 in mice bearing L1210 Leukemia, when compound (10 mg/kg) was administered intraperitoneally; assay type: functional
Mus musculus [11] = assay: The ratio of the survival time of treated to control animals x 100 in mice bearing L1210 Leukemia, when compound (15 mg/kg) was administered intraperitoneally; assay type: functional
Mus musculus [12] = assay: The ratio of the survival time of treated to control animals x 100 in mice bearing L1210 leukemia, when compound (5 mg/kg) was administered intraperitoneally; assay type: functional
Mus musculus [13] = assay: Number of mice surviving for a period greater than 50 days when a dose of 30 mg/Kg is administered intraperitoneally; tested in 5 mice; assay type: functional
Mus musculus [14] = assay: Number of mice survived for a period greater than 50 days when a dose of 20 mg/Kg is administered intraperitoneally; tested in 5 mice; assay type: functional
L1210 [15] = assay: Number L1210 (murine leukemia) inoculated mice surviving for >50 days following 25 mg/kg i.p.; assay type: functional, Mus musculus; settings: route intraperitoneal
Mus musculus [16] = assay: Average change in weight in mice bearing the B16 Melanoma, when compound(50 mg/kg) was administered intraperitoneally beginning 24 hr after tumor implantation, daily once for 6 consecutive days.; assay type: functional
Mus musculus [17] = assay: Average change in weight in mice bearing the L1210 Leukemia, when compound (20 mg/kg) was administered once daily beginning 24 hr after tumor implantation, for 6 consecutive days.; assay type: functional
Mus musculus [18] = assay: Average change in weight in mice bearing the L1210 Leukemia, when compound (25 mg/kg) was administered once daily beginning 24 hr after tumor implantation, for 6 consecutive days.; assay type: functional
Mus musculus [19] = assay: Average change in weight in mice bearing the L1210 Leukemia, when compound(30 mg/kg) was administered once daily beginning 24 hr after tumor implantation, for 6 consecutive days.; assay type: functional
Mus musculus [20] = assay: Average change in weight in mice bearing the B16 Melanoma, when compound(150 mg/kg) was administered beginning 24 hr after tumor implantation, daily once for 6 consecutive days.; assay type: functional
Mus musculus [21] = assay: Average change in weight in mice bearing the B16 Melanoma, when compound(100 mg/kg) was administered beginning 24 hr after tumor implantation, daily once for 6 consecutive days.; assay type: functional
Mus musculus [22] = assay: The ratio of the survival time of treated to control animals x 100 in mice bearing B16 Melanoma, when compound (100 mg/kg) was administered intraperitoneally; assay type: functional
Mus musculus [23] = assay: The ratio of the survival time of treated to control animals x 100 in mice bearing B16 Melanoma, when compound (150 mg/kg) was administered intraperitoneally; assay type: functional
Mus musculus [24] = assay: The ratio of the survival time of treated to control animals x 100 in mice bearing B16 Melanoma, when compound (50 mg/kg) was administered intraperitoneally; assay type: functional
L1210 [25] = assay: Percentage survival time of L1210 (murine leukemia) inoculated mice following 25 mg/kg i.p.; assay type: functional, Mus musculus; settings: route intraperitoneal
L1210 [26] = assay: Percentage survival time of L1210 (murine leukemia) inoculated mice following 30 mg/kg i.p.; assay type: functional, Mus musculus; settings: route intraperitoneal
L1210 [27] = assay: Percentage survival time of L1210 (murine leukemia) inoculated mice following 20 mg/kg i.p.; assay type: functional, Mus musculus; settings: route intraperitoneal
Mus musculus [28] = assay: Survival of mice bearing B16 melanoma cells greater than 50 days when treated with a dose of 100 mg/Kg administered intraperitoneally; tested in 5 mice; assay type: functional
Mus musculus [29] = assay: Survival of mice bearing B16 melanoma cells greater than 50 days when treated with a dose of 150 mg/Kg administered intraperitoneally; tested in 5 mice; assay type: functional
Mus musculus [30] = assay: Survival of mice bearing B16 melanoma cells greater than 50 days when treated with a dose of 50 mg/Kg administered intraperitoneally; tested in 5 mice; assay type: functional
Mus musculus [31] = assay: Number of mice survived for a period of greater than 50 days when a dose of 25 mg/Kg is administered intraperitoneally; tested in 10 mice; assay type: functional
Mus musculus [32] = assay: Number of mice survived for a period of greater than 50 days when a dose of 30 mg/Kg is administered intraperitoneally; tested in 10 mice; assay type: functional
Mus musculus [33] = assay: Number of mice survived for a period of greater than 50 days when a dose of 20 mg/Kg is administered intraperitoneally; tested in 10 mice; assay type: functional
Mus musculus [34] = assay: Average change in weight in mice bearing the L1210 Leukemia, when compound (15 mg/kg) was administered beginning 24 hr after tumor implantation, daily once for 6 consecutive days.; assay type: functional
Mus musculus [35] = assay: Number of mice survived for a period of greater than 50 days when a dose of 5 mg/Kg is administered intraperitoneally; tested in 5 mice; assay type: functional
Mus musculus [36] = assay: Number of mice survived for a period of greater than 50 days when a dose of 10 mg/Kg is administered intraperitoneally; tested in 5 mice; assay type: functional
Mus musculus [37] = assay: Number of mice survived for a period of greater than 50 days when a dose of 15 mg/Kg is administered intraperitoneally; tested in 5 mice; assay type: functional
Mus musculus [38] = assay: Number of mice survived for a period of greater than 50 days when a dose of 25 mg/Kg is administered intraperitoneally; tested in 4 mice; assay type: functional

| Compound | Average weight (Mus musculus [2]) [%] | Average weight (Mus musculus [3]) [%] | Activity (Mus musculus [10]) | Activity (Mus musculus [11]) | Activity (Mus musculus [12]) | Survivals (Mus musculus [13]) | Survivals (Mus musculus [14]) | Average body weight change (Mus musculus [16]) [%] | Average change in body weight (Mus musculus [17]) [%] | Average body weight change (Mus musculus [18]) [%] | Average change in body weight (Mus musculus [19]) [%] | Average change in body weight (Mus musculus [20]) [%] | Average change in body weight (Mus musculus [21]) [%] | Activity (Mus musculus [22]) | Activity (Mus musculus [23]) | Activity (Mus musculus [24]) | Activity (L1210 [25]) | Activity (L1210 [26]) | Activity (L1210 [27]) | Survivals (Mus musculus [28]) | also measured |
| --- | --- | --- | --- | --- | --- | --- | --- | --- | --- | --- | --- | --- | --- | --- | --- | --- | --- | --- | --- | --- | --- |
| CS(=O)(=O)Oc1cccc2c1C(=O)C(N1CC1)=C(N1CC1)C2=O | -7.1 | 3.3 | 185 | 295 | 130 | 2 | 0 | – | – | – | – | – | – | – | – | – | – | – | – | – | Average weight (Mus musculus [1]): -8.1%; Average weight (Mus musculus [4]): -10%; Average weight (Mus musculus [5]): -6.4%; Average weight (Mus musculus [6]): -3.8%; Activity (Mus musculus [7]): 137; Activity (Mus musculus [8]): 153; Activity (Mus musculus [9]): 125; Survivals (L1210 [15]): 4 |
| Cc1ccc(S(=O)(=O)Oc2cccc3c2C(=O)C(N2CC2)=C(N2CC2)C3=O)cc1 | – | – | – | – | – | – | – | 4.5 | -2.2 | -3.5 | -7.4 | -9.8 | -1.9 | 153 | 141 | 144 | 490 | 248 | 155 | 0 | Survivals (Mus musculus [29]): 0; Survivals (Mus musculus [30]): 0; Survivals (Mus musculus [31]): 9; Survivals (Mus musculus [32]): 7; Survivals (Mus musculus [33]): 7 |
| O=C1C(N2CC2)=C(N2CC2)C(=O)c2c(O)cccc21 | -3.2 | 6.3 | 96 | 104 | 114 | – | – | – | – | – | – | – | – | – | – | – | – | – | – | – | Average weight (Mus musculus [34]): -0.8%; Survivals (Mus musculus [35]): 0; Survivals (Mus musculus [36]): 0; Survivals (Mus musculus [37]): 0 |
| COc1ccc(S(=O)(=O)Oc2cccc3c2C(=O)C(N2CC2)=C(N2CC2)C3=O)cc1 | – | – | – | – | – | 3 | 0 | -4.7 | -0.1 | -2.4 | -1.3 | -15.2 | -12.4 | 154 | 165 | 132 | 222 | 193 | 175 | 0 | Survivals (Mus musculus [29]): 0; Survivals (Mus musculus [30]): 0; Survivals (Mus musculus [38]): 1 |
